Data on seven compounds can be found in patent US4458079A, “Sulfur-containing imidazoles” (Bristol-Myers Company, priority 1980, dated 1984).

What all share (format): cell-based
Assay [1] concerns Trichophyton mentagrophytes. Nature of the assay: MIC in Sabouraud broth (broth dilution). The note with it: 120 h, strain A 9870, five days at 28°, read-out: Minimum Inhibitory Concentration (MIC). The text has this:
(§1) The antifungal activity of some of the compounds of Formula I against a number of human and animal pathogenic fungi is given in Table I for either a liquid medium (Sabouraud broth) or an agar medium (Sabouraud broth plus 1% ionagar). Two-fold serial dilutions were made with Sabouraud's liquid medium from stock solutions of the test compounds, usually in dimethyl sulfoxide, N,N-dimethylformamide or water. The Minimum Inhibitory Concentrations (MIC's), which were considered to be the minimum concentrations of the test compounds in micrograms per milliliter which prevent grossly detectable growth of the test organisms, were then determined after inoculation of the medicated broths with the test organisms, and incubation at the appropriate temperature and for the appropriate time interval. Candida species were incubated for 24 hours at 37°, while the dermatophytes Trichophyton rubrum, Trichophyton mentagrophytes and Microsporum canis were incubated for five days at 28°. The agar dilution assay was essentially the same as the broth dilution assay except that 1% inoagar was added to the Sabouraud broth.

The test system of assay [2] is Candida tropicalis. As to the kind of experiment: MIC in Sabouraud broth (broth dilution). The following applies: strain A 15051, 24 hours at 37°, read-out: Minimum Inhibitory Concentration (MIC).
From the text: as §1

Assay [3] deals with Candida albicans. Nature of the assay: MIC in Sabouraud broth (broth dilution). The following applies: 24 h, read-out: Minimum Inhibitory Concentration (MIC).
From the text: as §1

Assay [4] concerns Trichophyton rubrum. Nature of the assay: MIC in Sabouraud broth (broth dilution). The note with it: 120 h, strain A 22789, five days at 28°, read-out: Minimum Inhibitory Concentration (MIC).
From the text: as §1

The test system of assay [5] is Candida krusei. As to the kind of experiment: MIC in Sabouraud broth (broth dilution). The following applies: Pichia kudriavzevii, strain A 15052, 24 hours at 37°, read-out: Minimum Inhibitory Concentration (MIC).
From the text: as §1

Assay [6] deals with Microsporum canis. Nature of the assay: MIC in Sabouraud broth (broth dilution). The following applies: 120 h, read-out: Minimum Inhibitory Concentration (MIC).
From the text: as §1

Assay [7] deals with Trichophyton mentagrophytes. As to the kind of experiment: MIC in Sabouraud broth plus 1% ionagar (agar dilution). The note with it: 120 h, strain A 9870, five days at 28°, read-out: Minimum Inhibitory Concentration (MIC).
From the text: as §1

The test system of assay [8] is Candida tropicalis. The assay is described as above. The note with it: strain A 15051, 24 hours at 37°, read-out: Minimum Inhibitory Concentration (MIC).
From the text: as §1

In assay [9] the test system is Candida albicans. The assay is described as above. The following applies: 24 h, read-out: Minimum Inhibitory Concentration (MIC).
From the text: as §1

In assay [10] the test system is Trichophyton rubrum. Described as above. The note with it: 120 h, strain A 22789, five days at 28°, read-out: Minimum Inhibitory Concentration (MIC).
From the text: as §1

For assay [11], the system named is Candida krusei. The description is as above. The following applies: Pichia kudriavzevii, strain A 15052, 24 hours at 37°, read-out: Minimum Inhibitory Concentration (MIC).
From the text: as §1

For assay [12], the system named is Microsporum canis. The assay is described as above. The note with it: 120 h, read-out: Minimum Inhibitory Concentration (MIC).
From the text: as §1

[13] abbreviates: strain A 15049, 24 hours at 37°.
Setting [14] is: strain A 9872, five days at 28°.
Where [15] appears, read: strain A 22494, five days at 28°.

Values after ≈ are worked out from the molar mass of the structure shown. Where only a bound is given, the exact number is not on record here.

Turning to `Clc1ccc(CSC(Cn2ccnc2)SCc2ccc(Cl)cc2Cl)c(Cl)c1` [2(g), 1-[2,2-bis(2,4-dichlorobenzylthio)ethyl]-1H-imidazole], the MIC was 0.063 µg/mL (≈ 0.132 µM) in assay [1]; greater than 16 µg/mL in the assay with Candida tropicalis [2]; greater than 16 µg/mL in the assay on Candida albicans [3] (strain A 1505, 24 hours at 37°); greater than 16 µg/mL in the assay on Candida albicans [3] (strain A 9540, 24 hours at 37°); greater than 16 µg/mL in the assay on Candida albicans [3] (setting [13]); 0.063 µg/mL (≈ 0.132 µM) in the assay with Trichophyton rubrum [4]. The MIC in the assay on Candida krusei [5] was greater than 16 µg/mL; with Microsporum canis [6] (setting [14]), 0.032 µg/mL (≈ 0.0669 µM); with Microsporum canis [6] (setting [15]), 0.063 µg/mL (≈ 0.132 µM).

Take `Clc1cccc(Cl)c1CSC(Cn1ccnc1)SCc1c(Cl)cccc1Cl.O=C(O)C(=O)O` [2(h), 1-[2,2-bis(2,6-dichlorobenzylthio)ethyl]-1H-imidazole hydrogen oxalate]: the MIC in assay [7] stood at 1 µg/mL; with Candida tropicalis [8], 63 µg/mL; in the assay with Candida albicans [9] (strain A 1505, 24 hours at 37°), 16 µg/mL; in the assay with Candida albicans [9] (strain A 9540, 24 hours at 37°), 8 µg/mL; in the assay on Candida albicans [9] (setting [13]) it was 16 µg/mL; with Trichophyton rubrum [10] it was 0.5 µg/mL. Also, the MIC turned out to be 32 µg/mL in the assay on Candida krusei [11], 1 µg/mL with Microsporum canis [12] (setting [14]) and 0.25 µg/mL with Microsporum canis [12] (setting [15]).

For the compound `Cc1ccc(CSC(Cn2ccnc2)SCc2ccc(C)cc2)cc1.Cl` [2(j), 1-[2,2-bis(4-methylbenzylthio)ethyl]-1H-imidazole hydrochloride], the MIC in assay [1] was 0.063 µg/mL; in the assay on Candida tropicalis [2], greater than 16 µg/mL; with Candida albicans [3] (strain A 1505, 24 hours at 37°) it was 4 µg/mL; in the assay on Candida albicans [3] (strain A 9540, 24 hours at 37°), 4 µg/mL; with Candida albicans [3] (setting [13]), 4 µg/mL; in the assay with Trichophyton rubrum [4] it was 0.063 µg/mL. Besides, the MIC with Candida krusei [5] worked out at 8 µg/mL; in the assay on Microsporum canis [6] (setting [14]) it was 0.063 µg/mL; with Microsporum canis [6] (setting [15]) it was 0.063 µg/mL.

As to `CSc1ccc(CSC(Cn2ccnc2)SCc2ccc(SC)cc2)cc1.Cl` [2(l), 1-[2,2-bis(4-methylthiobenzylthio)ethyl]-1H-imidazole hydrochloride], the MIC in [1] is 0.063 µg/mL; in the assay on Candida tropicalis [2] it was greater than 16 µg/mL; in the assay on Candida albicans [3] (strain A 1505, 24 hours at 37°), greater than 16 µg/mL; in the assay on Candida albicans [3] (strain A 9540, 24 hours at 37°), greater than 16 µg/mL; in the assay with Candida albicans [3] (setting [13]), greater than 16 µg/mL; in the assay on Trichophyton rubrum [4] it was 0.063 µg/mL. Also, the figures for the MIC with Candida krusei [5], in the assay with Microsporum canis [6] (setting [14]) and in the assay on Microsporum canis [6] (setting [15]) were 8 µg/mL, 0.063 µg/mL and 0.13 µg/mL, respectively.

Turning to `Cl.Clc1ccc(CSC(Cn2ccnc2)SCc2ccc(Cl)s2)s1` [2(p), 1-[2,2-bis(5-chloro-2-thienylmethylthio)ethyl]-1H-imidazole hydrochloride], the MIC in assay [7] came out at 0.5 µg/mL; in the assay on Candida tropicalis [8], 125 µg/mL; with Candida albicans [9] (strain A 1505, 24 hours at 37°), 4 µg/mL; in the assay with Candida albicans [9] (strain A 9540, 24 hours at 37°), 4 µg/mL; with Candida albicans [9] (setting [13]), 4 µg/mL; in the assay with Trichophyton rubrum [10], 0.5 µg/mL. For the same compound, the values for the MIC with Candida krusei [11], with Microsporum canis [12] (setting [14]) and in the assay on Microsporum canis [12] (setting [15]) were 8 µg/mL, 0.25 µg/mL and 0.032 µg/mL, respectively.

With `Cl.Clc1ccc(CSC(Cn2ccnc2)SCc2ccc(Cl)cc2)cc1` [Example 1, 1-[2,2-Bis(4-chlorobenzylthio)ethyl]-1H-imidazole Hydrochloride], the MIC is 0.032 µg/mL in [1]; greater than 16 µg/mL in the assay with Candida tropicalis [2]; 2 µg/mL in the assay on Candida albicans [3] (strain A 1505, 24 hours at 37°); 1 µg/mL with Candida albicans [3] (strain A 9540, 24 hours at 37°); 2 µg/mL in the assay on Candida albicans [3] (setting [13]); 0.063 µg/mL in the assay with Trichophyton rubrum [4]. Besides, the MIC in the assay with Candida krusei [5] was 0.5 µg/mL; in the assay with Microsporum canis [6] (setting [14]) it was 0.032 µg/mL; with Microsporum canis [6] (setting [15]) it was 0.063 µg/mL.

Take `Cl.Clc1ccc(CSC(Cn2ccnc2)Sc2ccc(Cl)cc2)cc1` (stereo not drawn) [Example 5, 1-[2-(4-Chlorobenzylthio)-2-(4-chlorophenylthio)ethyl]-1H-imidazole Hydrochloride]: the MIC turned out to be 0.063 µg/mL in [7]; 32 µg/mL in the assay with Candida tropicalis [8]; 4 µg/mL with Candida albicans [9] (strain A 1505, 24 hours at 37°); 4 µg/mL with Candida albicans [9] (strain A 9540, 24 hours at 37°); 4 µg/mL in the assay with Candida albicans [9] (setting [13]); 0.25 µg/mL in the assay with Trichophyton rubrum [10]. In addition, the MIC in the assay on Candida krusei [11] came out at 4 µg/mL; in the assay with Microsporum canis [12] (setting [14]), 0.25 µg/mL; in the assay on Microsporum canis [12] (setting [15]), 0.032 µg/mL.
